From US20230257385A1, “SALT AND SOLID FORMS OF TABERNANTHALOG” (priority 2021, published 2023)

Experiment: Suspension equilibration of the monofumarate salt at 20° C. and 40° C. (Experiment References 6, 7, 8)
Type: physicochemical
Settings: for Observations (t = 0 @ 20° C.) / Observations (t = 1 d @ 20° C.) / Observations t = 7 d @ 20° C.: suspension equilibration at 20° C.; for Observations (t = 0 @ 40° C.) / Observations (t = 1 d @ 40° C.) / Observations t = 7 d @ 40° C.: suspension equilibration at 40° C.
Description: Separate portions of the tabernanthalog monofumarate salt (Sample Reference 1, Pattern #1, ca 50 mg, 1.0 wt.) were charged to separate vessels. The appropriate solvents (e.g. 250 μl, 5.0 vol), were charged to the vessels and the mixtures were stirred for several days at their relevant temperatures e.g. 20 and 40° C. After this time the products were cooled, isolated by centrifugation, analyzed as wet pellet (suffix-1) by XRPD and dried under reduced pressure at 40° C. (suffix-2) and re-analyzed by XRPD and companion analyses for evidence of alternative crystalline forms.
The tabernanthalog monofumarate salt (Sample Reference 1, Pattern #1) was subjected to this technique at ambient temperature (20° C., Table 35) and at elevated temperature (40° C., Table 36), in a diverse range of solvents. The primary aim is to identify a stable, anhydrous monotropic form that is suitable for future development.
The tabernanthalog monofumarate salt (Sample Reference 1, Pattern #1, 1.0 g, 1 wt) was suspended in water (5 ml, 5 vol) at 20° C. for 10 days (the suspension was sub-sampled to monitor the conversion to Pattern #6a by XRPD). The suspension was filtered through a sintered funnel and the filter cake was dried under nitrogen flow for ca. 24 h. Sample 8-A4 (Experiment Reference 8-Sample Reference A4) was collected as a brown solid (560.6 mg, 56% yield uncorr.). Yield was not corrected for impurities, solvents, etc.

COc1ccc2c3c([nH]c2c1)CCN(C)CC3.O=C(O)/C=C/C(=O)O [Tabernanthalog•Monofumarate (CAT8931)]
Suspension: Observations (t = 0 @ 20° C.) (6-A, Acetone) | Observations (t = 1 d @ 20° C.) (6-A, Acetone) | Observations t = 7 d @ 20° C. (6-A, Acetone) | Observations (t = 0 @ 20° C.) (6-B, Acetonitrile) | Observations (t = 1 d @ 20° C.) (6-B, Acetonitrile) | Observations t = 7 d @ 20° C. (6-B, Acetonitrile) | Observations (t = 0 @ 20° C.) (6-C, tert-Butylmethyl ether) | Observations (t = 1 d @ 20° C.) (6-C, tert-Butylmethyl ether) | Observations t = 7 d @ 20° C. (6-C, tert-Butylmethyl ether) | Observations (t = 0 @ 20° C.) (6-D, Chlorobenzene) | Observations (t = 1 d @ 20° C.) (6-D, Chlorobenzene) | Observations t = 7 d @ 20° C. (6-D, Chlorobenzene) | Observations (t = 0 @ 20° C.) (6-E, Dichloromethane) | Observations (t = 1 d @ 20° C.) (6-E, Dichloromethane) | Observations t = 7 d @ 20° C. (6-E, Dichloromethane) | Observations (t = 0 @ 20° C.) (6-F, Ethanol) | Observations (t = 1 d @ 20° C.) (6-F, Ethanol) | Observations t = 7 d @ 20° C. (6-F, Ethanol) | Observations (t = 0 @ 20° C.) (6-G, Ethyl acetate) | Observations (t = 1 d @ 20° C.) (6-G, Ethyl acetate) | Observations t = 7 d @ 20° C. (6-G, Ethyl acetate) | Observations (t = 0 @ 20° C.) (6-H, Ethyl formate) | Observations (t = 1 d @ 20° C.) (6-H, Ethyl formate) | Observations t = 7 d @ 20° C. (6-H, Ethyl formate) | Observations (t = 0 @ 20° C.) (6-I, Heptane) | Observations (t = 1 d @ 20° C.) (6-I, Heptane) | Observations t = 7 d @ 20° C. (6-I, Heptane) | Observations (t = 0 @ 20° C.) (6-J, Isopropyl acetate) | Observations (t = 1 d @ 20° C.) (6-J, Isopropyl acetate) | Observations t = 7 d @ 20° C. (6-J, Isopropyl acetate) | Observations (t = 0 @ 20° C.) (6-K, Methanol) | Observations (t = 1 d @ 20° C.) (6-K, Methanol) | Observations t = 7 d @ 20° C. (6-K, Methanol) | Observations (t = 0 @ 20° C.) (6-L, Methyl acetate) | Observations (t = 1 d @ 20° C.) (6-L, Methyl acetate) | Observations t = 7 d @ 20° C. (6-L, Methyl acetate) | Observations (t = 0 @ 20° C.) (6-M, Methylethyl ketone) | Observations (t = 1 d @ 20° C.) (6-M, Methylethyl ketone) | Observations t = 7 d @ 20° C. (6-M, Methylethyl ketone) | Observations (t = 0 @ 20° C.) (6-N, 2-Methyl THF) | Observations (t = 1 d @ 20° C.) (6-N, 2-Methyl THF) | Observations t = 7 d @ 20° C. (6-N, 2-Methyl THF) | Observations (t = 0 @ 20° C.) (6-O, Nitromethane) | Observations (t = 1 d @ 20° C.) (6-O, Nitromethane) | Observations t = 7 d @ 20° C. (6-O, Nitromethane) | Observations (t = 0 @ 20° C.) (6-P, 2-Propanol) | Observations (t = 1 d @ 20° C.) (6-P, 2-Propanol) | Observations t = 7 d @ 20° C. (6-P, 2-Propanol) | Observations (t = 0 @ 20° C.) (6-Q, Tetrahydrofuran) | Observations (t = 1 d @ 20° C.) (6-Q, Tetrahydrofuran) | Observations t = 7 d @ 20° C. (6-Q, Tetrahydrofuran) | Observations (t = 0 @ 20° C.) (6-R, Toluene) | Observations (t = 1 d @ 20° C.) (6-R, Toluene) | Observations t = 7 d @ 20° C. (6-R, Toluene) | Observations (t = 0 @ 20° C.) (6-S, Water) | Observations (t = 1 d @ 20° C.) (6-S, Water) | Observations t = 7 d @ 20° C. (6-S, Water)

COc1ccc2c3c([nH]c2c1)CCN(C)CC3.O=C(O)/C=C/C(=O)O [Tabernanthalog•fumarate (CAT8931)]
Suspension: Observations (t = 0 @ 40° C.) (7-A, Acetone) | Observations (t = 1 d @ 40° C.) (7-A, Acetone) | Observations t = 7 d @ 40° C. (7-A, Acetone) | Observations (t = 0 @ 40° C.) (7-B, Acetonitrile) | Observations (t = 1 d @ 40° C.) (7-B, Acetonitrile) | Observations t = 7 d @ 40° C. (7-B, Acetonitrile) | Observations (t = 0 @ 40° C.) (7-C, tert-Butylmethyl ether) | Observations t = 7 d @ 40° C. (7-C, tert-Butylmethyl ether) | Observations (t = 0 @ 40° C.) (7-D, Chlorobenzene) | Observations (t = 1 d @ 40° C.) (7-D, Chlorobenzene) | Observations t = 7 d @ 40° C. (7-D, Chlorobenzene) | Observations (t = 0 @ 40° C.) (7-E, Dichloromethane) | Observations (t = 1 d @ 40° C.) (7-E, Dichloromethane) | Observations t = 7 d @ 40° C. (7-E, Dichloromethane) | Observations (t = 0 @ 40° C.) (7-F, Ethanol) | Observations (t = 1 d @ 40° C.) (7-F, Ethanol) | Observations t = 7 d @ 40° C. (7-F, Ethanol) | Observations (t = 0 @ 40° C.) (7-G, Ethyl acetate) | Observations (t = 1 d @ 40° C.) (7-G, Ethyl acetate) | Observations t = 7 d @ 40° C. (7-G, Ethyl acetate) | Observations (t = 0 @ 40° C.) (7-H, Ethyl formate) | Observations (t = 1 d @ 40° C.) (7-H, Ethyl formate) | Observations t = 7 d @ 40° C. (7-H, Ethyl formate) | Observations (t = 0 @ 40° C.) (7-I, Heptane) | Observations (t = 1 d @ 40° C.) (7-I, Heptane) | Observations t = 7 d @ 40° C. (7-I, Heptane) | Observations (t = 0 @ 40° C.) (7-J, Isopropyl acetate) | Observations (t = 1 d @ 40° C.) (7-J, Isopropyl acetate) | Observations t = 7 d @ 40° C. (7-J, Isopropyl acetate) | Observations (t = 0 @ 40° C.) (7-K, Methanol) | Observations t = 7 d @ 40° C. (7-K, Methanol) | Observations (t = 0 @ 40° C.) (7-L, Methyl acetate) | Observations (t = 1 d @ 40° C.) (7-L, Methyl acetate) | Observations t = 7 d @ 40° C. (7-L, Methyl acetate) | Observations (t = 0 @ 40° C.) (7-M, Methylethyl ketone) | Observations (t = 1 d @ 40° C.) (7-M, Methylethyl ketone) | Observations t = 7 d @ 40° C. (7-M, Methylethyl ketone) | Observations (t = 0 @ 40° C.) (7-N, 2-Methyl THF) | Observations (t = 1 d @ 40° C.) (7-N, 2-Methyl THF) | Observations t = 7 d @ 40° C. (7-N, 2-Methyl THF) | Observations (t = 0 @ 40° C.) (7-O, Nitromethane) | Observations (t = 1 d @ 40° C.) (7-O, Nitromethane) | Observations t = 7 d @ 40° C. (7-O, Nitromethane) | Observations (t = 0 @ 40° C.) (7-P, 2-Propanol) | Observations (t = 1 d @ 40° C.) (7-P, 2-Propanol) | Observations t = 7 d @ 40° C. (7-P, 2-Propanol) | Observations (t = 0 @ 40° C.) (7-Q, Tetrahydrofuran) | Observations t = 7 d @ 40° C. (7-Q, Tetrahydrofuran) | Observations (t = 0 @ 40° C.) (7-R, Toluene) | Observations (t = 1 d @ 40° C.) (7-R, Toluene) | Observations t = 7 d @ 40° C. (7-R, Toluene) | Observations (t = 0 @ 40° C.) (7-S, Water) | Observations t = 7 d @ 40° C. (7-S, Water)
Sticky Solid: Observations (t = 1 d @ 40° C.) (7-Q, Tetrahydrofuran)
